pEC50: −log10 of the molar value.
Tested on: progranulin
Test: Progranulin induction cellular assay (ELISA of secreted mouse PGRN)
Type: cell-based
Settings: progranulin induction assay; mouse pMG, primary cortical neurons and BV-2 cell lines named, cell type not given; ELISA-based readout; read-out: EC50
Outline: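 Mouse primary microglia, primary cortical neurons and BV-2 cells are used. BV-2 cells are plated in 96-well format the day before, with a 1 h attachment and 16 h incubation. Progranulin secreted into the medium is quantified by ELISA.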

Structure (SMILES) | pEC50
N[C@@]1(CO)CO[C@@H](C(=O)N2CCc3ccccc3[C@@H]2c2ccc(F)cc2)C1 (single isomer, unassigned) [Compound 5071] | 6.60
CCO[C@H]1CO[C@@H](C(=O)N2CCc3ccccc3[C@@H]2c2ccc(F)cc2)C[C@@H]1N [Compound 5078, ((2R,4S,5R)-4-amino-5-ethoxytetrahydro-2H-pyran-2-yl)((S)-1-(4-fluorophenyl)-3,4-dihydroisoquinolin-2(1H)-yl)methanone] | 9.00
N[C@@H]1CCO[C@@H](C(=O)N2CCc3ccccc3[C@@H]2c2ccc(F)cc2)C1 (single isomer, unassigned) [Compound 5028] | 7.38
CO[C@H]1CO[C@@H](C(=O)N2CCc3ccccc3[C@@H]2c2ccc(F)cc2)C[C@@H]1NCCC(F)(F)F [Compound 5570] | 6.63
N[C@H]1C[C@H](C(=O)N2CCc3ccccc3[C@@H]2c2ccc(F)cc2)OC[C@@H]1OC1CCC1 [Compound 5525, ((2R,4S,5R)-4-amino-5-cyclobutoxytetrahydro-2H-pyran-2-yl)((S)-1-(4-fluorophenyl)-3,4-dihydroisoquinolin-2(1H)-yl)methanone] | 9.52
COCCN[C@@H]1CC[C@@H](C(=O)N2CCc3ccccc3[C@@H]2c2ccc(F)cc2)OC1 [Compound 5035, ((S)-1-(4-fluorophenyl)-3,4-dihydroisoquinolin-2(1H)-yl)((2S,5R)-5-((2-methoxyethyl)amino)tetrahydro-2H-pyran-2-yl)methanone] | 6.43
O=C1CN[C@H]2C[C@H](C(=O)N3CCc4ccccc4[C@@H]3c3ccc(F)cc3)OC[C@@H]2N1 [Compound 5532, (4aR,7R,8aS)-7-((S)-1-(4-fluorophenyl)-1,2,3,4-tetrahydroisoquinoline-2-carbonyl)hexahydro-2H-pyrano[3,4-b]pyrazin-3(4H)-one] | 5.77
N[C@H]1CO[C@H](C(=O)N2CCc3ccccc3[C@@H]2c2ccc(F)cc2)C[C@H]1F [Compound 5086, ((2S,4R,5S)-5-amino-4-fluorotetrahydro-2H-pyran-2-yl)((S)-1-(4-fluorophenyl)-3,4-dihydroisoquinolin-2(1H)-yl)methanone] | 6.71
N[C@H]1CO[C@H](C(=O)N2CCc3ccccc3[C@@H]2c2ccc(F)cc2)C[C@@H]1F [Compound 5059, ((2S,4S,5S)-5-amino-4-fluorotetrahydro-2H-pyran-2-yl)((S)-1-(4-fluorophenyl)-3,4-dihydroisoquinolin-2(1H)-yl)methanone] | 6.46
CCS[C@H]1CO[C@@H](C(=O)N2CCc3ccccc3[C@@H]2c2ccc(F)cc2)C[C@@H]1N [Compound 5521, ((2R,4S,5R)-4-amino-5-(ethylthio)tetrahydro-2H-pyran-2-yl)((S)-1-(4-fluorophenyl)-3,4-dihydroisoquinolin-2(1H)-yl)methanone] | 8.10
N[C@@H]1C[C@H](C(=O)N2CCc3ccccc3[C@@H]2c2ccc(F)cc2)OC[C@H]1O [Compound 5092, ((2R,4R,5S)-4-amino-5-hydroxytetrahydro-2H-pyran-2-yl)((S)-1-(4-fluorophenyl)-3,4-dihydroisoquinolin-2(1H)-yl)methanone] | 6.74
O=C([C@H]1CCNCCO1)N1CCc2ccccc2[C@@H]1c1ccc(F)cc1 (single isomer, unassigned) [Compound 5044] | 6.79
C[C@H]1CO[C@@H](C(=O)N2CCc3ccccc3[C@@H]2c2ccc(F)cc2)C[C@@H]1N [Compound 5518, ((2R,4S,5R)-4-amino-5-methyltetrahydro-2H-pyran-2-yl)((S)-1-(4-fluorophenyl)-3,4-dihydroisoquinolin-2(1H)-yl)methanone] | 7.82
N[C@@H]1CO[C@H](C(=O)N2CCc3ccccc3[C@@H]2c2ccc(F)cc2)C[C@@H]1O [Compound 5053, ((2S,4S,5R)-5-amino-4-hydroxytetrahydro-2H-pyran-2-yl)((S)-1-(4-fluorophenyl)-3,4-dihydroisoquinolin-2(1H)-yl)methanone] | 7.11
N[C@@H]1C[C@H](C(=O)N2CCc3ccccc3[C@@H]2c2ccc(F)cc2)OC[C@@H]1F [Compound 5250, ((2R,4R,5R)-4-amino-5-fluorotetrahydro-2H-pyran-2-yl)((S)-1-(4-fluorophenyl)-3,4-dihydroisoquinolin-2(1H)-yl)methanone] | 7.02
NCC1COC(C(=O)N2CCc3ccccc3[C@@H]2c2ccc(F)cc2)C1 (mixture of isomers) [Compound 5014, ((2R)-4-(aminomethyl)tetrahydrofuran-2-yl)((S)-1-(4-fluorophenyl)-3,4-dihydroisoquinolin-2(1H)-yl)methanone] | 6.30
N[C@H]1C[C@@H](C(=O)N2CCc3ccccc3[C@@H]2c2ccc(F)cc2)OC[C@@H]1O [Compound 5083, ((2S,4S,5R)-4-amino-5-hydroxytetrahydro-2H-pyran-2-yl)((S)-1-(4-fluorophenyl)-3,4-dihydroisoquinolin-2(1H)-yl)methanone] | 7.08
CCO[C@@H]1CO[C@@H](C(=O)N2CCc3ccccc3[C@@H]2c2ccc(F)cc2)C[C@@H]1N [Compound 5063, ((2R,4S,5S)-4-amino-5-ethoxytetrahydro-2H-pyran-2-yl)((S)-1-(4-fluorophenyl)-3,4-dihydroisoquinolin-2(1H)-yl)methanone] | 7.46

Structure (SMILES) | pEC50
N[C@H]1C[C@H](C(=O)N2CCc3ccccc3[C@@H]2c2ccc(F)cc2)OC[C@@H]1NCC(F)(F)F [Compound 5539, ((2R,4S,5R)-4-amino-5-((2,2,2-trifluoroethyl)amino)tetrahydro-2H-pyran-2-yl)((S)-1-(4-fluorophenyl)-3,4-dihydroisoquinolin-2(1H)-yl)methanone] | 9.00
O=C([C@H]1C[C@@H]2OCCN[C@@H]2CO1)N1CCc2ccccc2[C@@H]1c1ccc(F)cc1 [Compound 5432, ((S)-1-(4-fluorophenyl)-3,4-dihydroisoquinolin-2(1H)-yl)((4aR,7R,8aS)-hexahydro-2H,5H-pyrano[4,3-b][1,4]oxazin-7-yl)methanone] | 6.95
CC[S@@+2]([NH-])([O-])[C@H]1CO[C@@H](C(=O)N2CCc3ccccc3[C@@H]2c2ccc(F)cc2)C[C@@H]1N (single isomer, unassigned) [Compound 5549] | 7.52
N[C@H]1C[C@H](C(=O)N2CCc3ccccc3[C@@H]2c2ccc(F)cc2)OC[C@@H]1O [Compound 5055, ((2R,4S,5R)-4-amino-5-hydroxytetrahydro-2H-pyran-2-yl)((S)-1-(4-fluorophenyl)-3,4-dihydroisoquinolin-2(1H)-yl)methanone] | 7.25
N[C@@H]1CC[C@@H](C(=O)N2CCc3ccccc3[C@H]2c2ccc(F)cc2F)OC1 (single isomer, unassigned) [Compound 5019] | 7.00
N[C@H]1C[C@H](C(=O)N2CCc3ccccc3[C@@H]2c2ccc(F)cc2)OC[C@@H]1Oc1ccccc1 [Compound 5527, ((2R,4S,5R)-4-amino-5-phenoxytetrahydro-2H-pyran-2-yl)((S)-1-(4-fluorophenyl)-3,4-dihydroisoquinolin-2(1H)-yl)methanone] | 6.56
CCO[C@H]1CO[C@@H](C(=O)N2CCc3ccccc3[C@@H]2c2ccc(F)cc2)C[C@@H]1NC [Compound 5509, ((2R,4S,5R)-5-ethoxy-4-(methylamino)tetrahydro-2H-pyran-2-yl)((S)-1-(4-fluorophenyl)-3,4-dihydroisoquinolin-2(1H)-yl)methanone] | 9.00
CCC[C@@H]1CN[C@H]2C[C@H](C(=O)N3CCc4ccccc4[C@@H]3c3ccc(F)cc3)OC[C@@H]2O1 [Compound 5565] | < 6.52
O=C([C@H]1CNCCCO1)N1CCc2ccccc2[C@@H]1c1ccc(F)cc1 (single isomer, unassigned) [Compound 5090] | 6.79
CS[C@H]1CO[C@@H](C(=O)N2CCc3ccccc3[C@@H]2c2ccc(F)cc2)C[C@@H]1N [Compound 5520, ((2R,4S,5R)-4-amino-5-(methylthio)tetrahydro-2H-pyran-2-yl)((S)-1-(4-fluorophenyl)-3,4-dihydroisoquinolin-2(1H)-yl)methanone] | 8.40
N[C@H]1CCO[C@@H](C(=O)N2CCc3ccccc3[C@@H]2c2ccc(F)cc2)C1 (single isomer, unassigned) [Compound 5080] | 6.78
CC(C)O[C@H]1CO[C@@H](C(=O)N2CCc3ccccc3[C@@H]2c2ccc(F)cc2)C[C@@H]1N [Compound 5267, ((2R,4S,5R)-4-amino-5-isopropoxytetrahydro-2H-pyran-2-yl)((S)-1-(4-fluorophenyl)-3,4-dihydroisoquinolin-2(1H)-yl)methanone] | 10.00
N[C@H]1CO[C@H](C(=O)N2CCc3ccccc3[C@@H]2c2ccc(F)cc2)CC1(F)F [Compound 5060, ((2S,5S)-5-amino-4,4-difluorotetrahydro-2H-pyran-2-yl)((S)-1-(4-fluorophenyl)-3,4-dihydroisoquinolin-2(1H)-yl)methanone] | 5.23
N[C@@H]1COC(C(=O)N2CCc3ccccc3[C@@H]2c2ccc(F)cc2)C1 (stereo in doubt) [Compound 5011, ((2S,4S)-4-aminotetrahydrofuran-2-yl)((S)-1-(4-fluorophenyl)-3,4-dihydroisoquinolin-2(1H)-yl)methanone] | 5.78
N[C@H]1CO[C@@H](C(=O)N2CCc3ccccc3[C@@H]2c2ccc(F)cc2)C[C@@H]1F [Compound 5210, ((2R,4S,5S)-5-amino-4-fluorotetrahydro-2H-pyran-2-yl)((S)-1-(4-fluorophenyl)-3,4-dihydroisoquinolin-2(1H)-yl)methanone] | 6.22
N=[S@]1(=O)CCN[C@H]2C[C@H](C(=O)N3CCc4ccccc4[C@@H]3c3ccc(F)cc3)OC[C@@H]21 (single isomer, unassigned) [Compound 5554] | 5.31
O=C([C@H]1CC[C@H](NCCO)CO1)N1CCc2ccccc2[C@@H]1c1ccc(F)cc1 [Compound 5034, ((S)-1-(4-fluorophenyl)-3,4-dihydroisoquinolin-2(1H)-yl)((2R,5S)-5-((2-hydroxyethyl)amino)tetrahydro-2H-pyran-2-yl)methanone] | 6.73
